Assay results from patent US10662229B2, “Spider venom peptides and methods of use for modulating sodium channels” (priority 2016, dated 2020).

How the values were obtained:
Type in all cases: cell-based
hNav1.1 [1] = target: T1, hNav1.1 (Homo sapiens, UniProt P35498); assay: FLIPR membrane potential assay, hNav1.1
T1 construct: host or cells: HEK293
Summary of the method: (§1)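 Stable HEK293 lines, one per hNav isoform; red membrane potential dye, 30 min, 37° C; FLIPR^TETRA read at 1 s intervals over 300 s post-agonist.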

hNav1.2 = target: T2, hNav1.2 (Homo sapiens, UniProt Q99250); assay: FLIPR membrane potential assay, hNav1.2
T2 construct: host or cells: HEK293
Summary of the method: as §1

hNav1.5 = target: T3, hNav1.5 (Homo sapiens, UniProt Q14524); assay: FLIPR membrane potential assay, hNav1.5
T3 construct: host or cells: HEK293
Summary of the method: as §1

hNav1.6 = target: T4, hNav1.6 (Homo sapiens, UniProt Q9UQD0); assay: FLIPR membrane potential assay, hNav1.6
T4 construct: host or cells: HEK293
Summary of the method: as §1

hNav1.8 [2] = target: T5, hNav1.8 (Homo sapiens, UniProt Q9Y5Y9); assay: FLIPR membrane potential assay, hNav1.8
T5 construct: host or cells: HEK293
T5 sequence (Q9Y5Y9 whole entry): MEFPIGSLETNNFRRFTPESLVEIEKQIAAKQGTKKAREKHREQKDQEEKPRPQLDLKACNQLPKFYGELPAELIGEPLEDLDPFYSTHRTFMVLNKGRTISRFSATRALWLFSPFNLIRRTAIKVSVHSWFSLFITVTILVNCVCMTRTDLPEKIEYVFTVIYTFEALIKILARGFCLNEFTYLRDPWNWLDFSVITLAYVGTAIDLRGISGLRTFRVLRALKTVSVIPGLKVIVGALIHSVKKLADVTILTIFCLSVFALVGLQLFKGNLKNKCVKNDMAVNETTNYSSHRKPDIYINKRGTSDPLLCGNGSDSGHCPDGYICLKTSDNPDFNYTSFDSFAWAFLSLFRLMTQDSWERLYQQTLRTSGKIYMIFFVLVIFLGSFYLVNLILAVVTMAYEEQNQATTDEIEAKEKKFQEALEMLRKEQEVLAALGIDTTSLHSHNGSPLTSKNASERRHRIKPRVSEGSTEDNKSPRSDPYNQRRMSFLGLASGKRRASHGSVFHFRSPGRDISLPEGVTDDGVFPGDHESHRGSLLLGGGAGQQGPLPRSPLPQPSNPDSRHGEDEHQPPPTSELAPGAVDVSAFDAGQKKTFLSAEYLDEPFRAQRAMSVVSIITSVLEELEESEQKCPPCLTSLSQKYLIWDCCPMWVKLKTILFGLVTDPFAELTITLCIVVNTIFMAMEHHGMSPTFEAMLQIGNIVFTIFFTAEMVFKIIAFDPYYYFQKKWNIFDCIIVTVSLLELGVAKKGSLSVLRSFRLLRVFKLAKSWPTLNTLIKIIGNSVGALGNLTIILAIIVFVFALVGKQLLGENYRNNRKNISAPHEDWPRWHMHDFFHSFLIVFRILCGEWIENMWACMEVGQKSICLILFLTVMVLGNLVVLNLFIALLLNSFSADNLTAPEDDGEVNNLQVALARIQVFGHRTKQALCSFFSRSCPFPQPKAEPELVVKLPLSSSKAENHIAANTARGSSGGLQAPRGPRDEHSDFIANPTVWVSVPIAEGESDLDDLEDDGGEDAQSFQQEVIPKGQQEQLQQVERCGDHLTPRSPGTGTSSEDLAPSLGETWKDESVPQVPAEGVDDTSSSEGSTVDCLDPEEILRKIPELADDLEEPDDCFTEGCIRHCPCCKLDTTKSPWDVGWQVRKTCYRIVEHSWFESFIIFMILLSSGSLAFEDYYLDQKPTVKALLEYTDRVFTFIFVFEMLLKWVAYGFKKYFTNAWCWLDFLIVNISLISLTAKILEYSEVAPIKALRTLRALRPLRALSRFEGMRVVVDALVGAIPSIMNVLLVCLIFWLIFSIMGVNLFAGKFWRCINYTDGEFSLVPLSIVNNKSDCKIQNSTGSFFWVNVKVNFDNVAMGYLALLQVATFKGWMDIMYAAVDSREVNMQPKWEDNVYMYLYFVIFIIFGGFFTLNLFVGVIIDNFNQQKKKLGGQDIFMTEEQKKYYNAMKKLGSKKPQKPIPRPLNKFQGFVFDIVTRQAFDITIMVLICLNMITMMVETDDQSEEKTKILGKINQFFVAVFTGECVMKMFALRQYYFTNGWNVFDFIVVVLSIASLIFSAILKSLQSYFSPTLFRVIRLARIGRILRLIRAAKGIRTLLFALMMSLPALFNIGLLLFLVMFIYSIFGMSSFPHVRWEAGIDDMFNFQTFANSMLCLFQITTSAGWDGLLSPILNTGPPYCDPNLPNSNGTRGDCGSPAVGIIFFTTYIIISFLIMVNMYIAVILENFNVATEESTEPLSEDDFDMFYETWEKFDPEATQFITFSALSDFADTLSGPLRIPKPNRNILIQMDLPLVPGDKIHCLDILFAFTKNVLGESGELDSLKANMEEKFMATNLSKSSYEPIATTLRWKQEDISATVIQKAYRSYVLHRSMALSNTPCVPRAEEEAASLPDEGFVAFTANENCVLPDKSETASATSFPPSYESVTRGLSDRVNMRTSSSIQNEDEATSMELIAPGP
Summary of the method: as §1

hNav1.1 [3] = target: T1, hNav1.1; assay: Automated patch clamping (QPatch-16), hNav1.1; settings: mean±SEM
Method: (§2) HEK293 cells stably expressing hNav1.1-1.7 or CHO cells stably expressing hNav1.8 (as described in Example 3 above) were cultured in a T-175 flask in selection antibiotic-free media at 37° C. Cells were grown to 70-80% confluence and harvested using Detachin (Bio-Scientific, NSW, Australia) at 37° C. for 2 min. Dissociated cells were then resuspended in Ex-Cell ACF CHO Medium with HEPES (25 mM; Sigma-Aldrich Co.) and allowed to recover on the QStirrer for 30 min.
(§3) The extracellular solution contained in mM: NaCl 145, KCl 4, CaCl2 2, MgCl2 1, HEPES 10 and glucose 10. The pH was adjusted to 7.4 with NaOH and osmolarity was adjusted with sucrose to 305 mOsm. The intracellular solution contained in mM: CsF 140, ethylene glycol tetraacetic acid (EGTA)/CsOH 1/5, HEPES 10 and NaCl 10. The pH was adjusted to 7.3 with CsOH and osmolarity adjusted with sucrose to 320 mOsm. […]
(§4) The current-voltage (IV) curve was constructed with a holding potential of −80 mV followed by a pre-pulse of −100 mV for 50 ms and a series of 50 ms step pulses that ranged from −80 to 50 mV in 5 mV increments before returning to a holding potential of −80 mV. Voltage-dependence of activation was determined as normalized Nav conductance (GNa) using: GNa=INa/(Vmemb−Vrev), where Vmemb is the membrane potential and Vrev is the reversal potential for each cell. […]

hNav1.3 = target: T6, hNav1.3 (Homo sapiens, UniProt Q9NY46); assay: Automated patch clamping (QPatch-16), hNav1.3; settings: mean±SEM
T6 construct: host or cells: HEK293
Method: as §2, §3, §4

hNav1.4 = target: T7, hNav1.4 (Homo sapiens, UniProt P35499); assay: Automated patch clamping (QPatch-16), hNav1.4
T7 construct: host or cells: HEK293
Method: as §2, §3, §4

hNav1.7 = target: T8, hNav1.7 (Homo sapiens, UniProt Q15858); assay: Automated patch clamping (QPatch-16), hNav1.7; settings: for voltage dependence of activation, V50: control −25.1±0.5 mV
T8 construct: host or cells: HEK293
T8 sequence (Q15858 whole entry): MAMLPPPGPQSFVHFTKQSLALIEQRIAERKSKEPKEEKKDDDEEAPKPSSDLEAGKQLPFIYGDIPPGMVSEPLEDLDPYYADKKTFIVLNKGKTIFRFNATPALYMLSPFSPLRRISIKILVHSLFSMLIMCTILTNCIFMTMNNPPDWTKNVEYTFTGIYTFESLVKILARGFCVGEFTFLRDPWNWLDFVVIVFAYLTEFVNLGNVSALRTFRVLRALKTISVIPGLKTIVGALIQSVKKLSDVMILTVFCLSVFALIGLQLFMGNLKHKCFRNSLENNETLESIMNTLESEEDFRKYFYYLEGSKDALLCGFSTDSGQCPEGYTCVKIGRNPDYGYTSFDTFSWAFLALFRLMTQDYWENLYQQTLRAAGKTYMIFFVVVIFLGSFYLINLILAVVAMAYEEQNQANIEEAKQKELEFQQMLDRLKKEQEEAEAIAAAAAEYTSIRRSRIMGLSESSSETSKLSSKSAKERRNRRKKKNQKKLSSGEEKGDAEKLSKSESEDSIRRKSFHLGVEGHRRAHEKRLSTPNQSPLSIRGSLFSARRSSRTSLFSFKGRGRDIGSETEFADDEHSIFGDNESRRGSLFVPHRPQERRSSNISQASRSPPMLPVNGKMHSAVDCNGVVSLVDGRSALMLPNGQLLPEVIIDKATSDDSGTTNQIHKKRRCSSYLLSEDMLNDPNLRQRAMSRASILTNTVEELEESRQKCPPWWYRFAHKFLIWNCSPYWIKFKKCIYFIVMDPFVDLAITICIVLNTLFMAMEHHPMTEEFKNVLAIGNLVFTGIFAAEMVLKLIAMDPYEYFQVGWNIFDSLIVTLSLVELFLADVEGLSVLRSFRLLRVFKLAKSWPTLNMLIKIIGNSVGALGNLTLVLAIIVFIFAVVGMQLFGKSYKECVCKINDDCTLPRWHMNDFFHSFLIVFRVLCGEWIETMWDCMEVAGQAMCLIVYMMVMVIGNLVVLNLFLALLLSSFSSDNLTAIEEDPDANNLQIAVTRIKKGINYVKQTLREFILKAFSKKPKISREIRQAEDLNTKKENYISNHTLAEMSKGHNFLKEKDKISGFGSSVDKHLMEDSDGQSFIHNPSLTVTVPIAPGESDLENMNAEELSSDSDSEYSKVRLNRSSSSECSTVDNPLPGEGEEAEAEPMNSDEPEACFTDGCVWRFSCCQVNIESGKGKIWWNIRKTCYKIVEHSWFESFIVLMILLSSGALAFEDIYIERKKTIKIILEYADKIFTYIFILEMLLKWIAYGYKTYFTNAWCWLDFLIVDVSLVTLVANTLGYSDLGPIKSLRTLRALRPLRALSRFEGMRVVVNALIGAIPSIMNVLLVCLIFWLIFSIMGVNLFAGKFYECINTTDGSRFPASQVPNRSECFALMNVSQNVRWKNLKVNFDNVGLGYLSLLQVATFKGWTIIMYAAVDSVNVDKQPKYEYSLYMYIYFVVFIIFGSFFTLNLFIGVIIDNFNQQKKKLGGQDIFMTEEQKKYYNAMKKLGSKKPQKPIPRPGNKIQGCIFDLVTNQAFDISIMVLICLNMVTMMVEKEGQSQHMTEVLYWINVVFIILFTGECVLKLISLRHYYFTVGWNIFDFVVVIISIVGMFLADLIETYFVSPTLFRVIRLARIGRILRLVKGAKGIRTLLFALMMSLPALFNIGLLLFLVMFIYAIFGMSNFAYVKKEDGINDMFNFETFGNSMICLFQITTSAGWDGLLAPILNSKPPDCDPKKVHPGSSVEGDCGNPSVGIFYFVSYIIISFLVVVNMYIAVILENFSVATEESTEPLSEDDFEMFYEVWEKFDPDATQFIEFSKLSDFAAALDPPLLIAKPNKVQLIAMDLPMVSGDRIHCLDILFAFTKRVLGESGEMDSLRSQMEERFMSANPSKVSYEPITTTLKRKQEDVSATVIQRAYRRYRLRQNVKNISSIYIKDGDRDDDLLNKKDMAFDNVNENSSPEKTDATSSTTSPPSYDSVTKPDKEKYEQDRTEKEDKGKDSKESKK
Method: as §2
The extracellular solution contained in mM: NaCl 145, KCl 4, CaCl2 2, MgCl2 1, HEPES 10 and glucose 10. The pH was adjusted to 7.4 with NaOH and osmolarity was adjusted with sucrose to 305 mOsm. The intracellular solution contained in mM: CsF 140, ethylene glycol tetraacetic acid (EGTA)/CsOH 1/5, HEPES 10 and NaCl 10. The pH was adjusted to 7.3 with CsOH and osmolarity adjusted with sucrose to 320 mOsm.
Whole-cell patch-clamp experiments were performed on a QPatch-16 automated electrophysiology platform (Sophion Bioscience, Ballerup, Denmark) using 16-channel planar patch chip plates (QPlates; Sophion Bioscience) with a patch hole diameter of 1 μm and resistance of 2±0.02 MΩ with the following parameters: positioning pressure −60 mbar, minimum seal resistance 0.1 GΩ, holding potential −100 mV, holding pressure −20 mbar.
Whole-cell currents were filtered at 5 kHz and acquired at 25 kHz.
The current-voltage (IV) curve was constructed with a holding potential of −80 mV followed by a pre-pulse of −100 mV for 50 ms and a series of 50 ms step pulses that ranged from −80 to 50 mV in 5 mV increments before returning to a holding potential of −80 mV. Voltage-dependence of activation was determined as normalized Nav conductance (GNa) using: GNa=INa/(Vmemb−Vrev), where Vmemb is the membrane potential and Vrev is the reversal potential for each cell. The voltage of activation data was fitted to a Boltzmann sigmoidal curve using GraphPad Prism, version 6.0.

hNav1.8 [4] = target: T5, hNav1.8; assay: Automated patch clamping (QPatch-16), hNav1.8
Method: as §2, §3, §4

For `CSCC[C@@H]1NC(=O)[C@H](Cc2ccc(O)cc2)NC(=O)[C@H](CCCNC(=N)N)NC(=O)[C@@H](NC(=O)[C@@H](N)CC(=O)O)CSSC[C@@H]2NC(=O)[C@@H]3CSSC[C@@H](C(=O)N[C@@H](C)C(=O)N[C@@H](Cc4c[nH]c5ccccc45)C(=O)N[C@@H](CC(=O)O)C(=O)N[C@@H](Cc4ccccc4)C(=O)N[C@H](C(=O)N[C@@H](Cc4ccccc4)C(=O)N[C@H](C(=O)O)[C@@H](C)O)[C@@H](C)O)NC(=O)[C@H](Cc4ccc(O)cc4)NC(=O)[C@H](CCCCN)NC(=O)[C@H](CCSC)NC(=O)[C@H](CCCCN)NC(=O)[C@H](CCCNC(=N)N)NC(=O)[C@H](CCCCN)NC(=O)[C@H](CSSC[C@H](NC(=O)[C@H](CC(=O)O)NC(=O)CNC(=O)[C@H](Cc4ccccc4)NC1=O)C(=O)N[C@@H](CCC(=O)O)C(=O)N[C@@H](CCCCN)C(=O)N[C@@H](CC(=O)O)C(=O)N[C@@H](CCC(=O)O)C(=O)N[C@@H](CC(=O)O)C(=O)N3)NC(=O)CNC(=O)[C@H](CC(C)C)NC(=O)[C@H](Cc1cnc[nH]1)NC(=O)[C@H](CCCCN)NC2=O` [Pnc1a], the IC50 (hNav1.1 [1]) was 13.2 µM, the IC50 (hNav1.2) was 2.95 µM and the IC50 (hNav1.5) was 85.1 µM. For the same compound, the IC50 (hNav1.6) was 18.6 µM, the IC50 (hNav1.8 [2]) was 26.3 µM and the “pIC50 Nav1.1” value (hNav1.1 [3]) was 7.43±0.1 M. For the same compound, the “pIC50 Nav1.3” value (hNav1.3) was 6.68±0.1 M, the IC50 (hNav1.4) was 0.158 µM and the “voltage dependence of activation, V50” value (hNav1.7; 0.3 nM) was −28.94±0.66 mV. The “voltage dependence of activation, V50” value (hNav1.7; 10 nM) was −4.40±2.2 mV, the “effect on the voltage dependence of fast inactivation” value (hNav1.7; 100 nM) was “no effect” and the “effect on the voltage dependence of slow inactivation” value (hNav1.7; 100 nM) was “no effect”. The “voltage dependence of activation, V50” value (hNav1.7; 100 nM) was −3.82±0.8 mV and the IC50 (hNav1.8 [4]) was 47.9 µM.
